From ChEMBL document CHEMBL2176960, “Mechanism-based inactivation (MBI) of cytochrome P450 enzymes: structure-activity relationships and discovery strategies to mitigate drug-drug interaction risks” (J Med Chem, 2012) come the findings set out here.

For data set [1], the target named is T1, CYP3A4 (Homo sapiens, UniProt P08684). The data set can be described thus: (§1) Time dependent inhibition of CYP3A4. The format is ADME.
Data set [2] deals with T2, Cytochrome P450 3A4 (Homo sapiens, UniProt P08684). The description is as §1. The format is ADME.
T2 sequence (P08684 whole entry): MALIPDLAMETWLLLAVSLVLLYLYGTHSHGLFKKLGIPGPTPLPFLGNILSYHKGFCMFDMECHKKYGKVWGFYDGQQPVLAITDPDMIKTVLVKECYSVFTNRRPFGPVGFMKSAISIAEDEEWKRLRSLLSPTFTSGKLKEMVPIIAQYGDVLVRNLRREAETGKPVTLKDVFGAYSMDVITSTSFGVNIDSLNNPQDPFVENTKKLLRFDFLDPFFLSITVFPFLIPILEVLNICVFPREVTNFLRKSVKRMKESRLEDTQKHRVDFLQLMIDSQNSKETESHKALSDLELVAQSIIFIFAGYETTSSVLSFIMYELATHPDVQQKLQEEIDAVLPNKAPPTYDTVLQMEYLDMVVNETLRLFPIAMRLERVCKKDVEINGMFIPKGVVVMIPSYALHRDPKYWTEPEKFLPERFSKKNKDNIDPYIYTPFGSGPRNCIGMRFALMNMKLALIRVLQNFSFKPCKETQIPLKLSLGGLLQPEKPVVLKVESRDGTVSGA
Data set [3] is described as follows: Clearance in human. The format is ADME, organism-based. The conditions noted are these: in vivo.
Data set [4] is described as follows: Lipophilicity, log D of the compound. The format is physicochemical. The following applies: octanol/water.
The nature of data set [5]: Oral bioavailability in human. The format is ADME, organism-based. The conditions noted are these: in vivo.
Data set [6] deals with T1, CYP3A4. The data set can be described thus: (§2) Time dependent inhibition of CYP3A4 in human liver microsomes. The format is ADME, Microsome. The following applies: human, liver microsomes.
In data set [7] the target is T2, Cytochrome P450 3A4. Described as §2. The format is ADME, Microsome.
In data set [8] the target is T3, Cytochrome P450 2C8 (Homo sapiens, UniProt P10632).
T3 sequence (P10632 whole entry): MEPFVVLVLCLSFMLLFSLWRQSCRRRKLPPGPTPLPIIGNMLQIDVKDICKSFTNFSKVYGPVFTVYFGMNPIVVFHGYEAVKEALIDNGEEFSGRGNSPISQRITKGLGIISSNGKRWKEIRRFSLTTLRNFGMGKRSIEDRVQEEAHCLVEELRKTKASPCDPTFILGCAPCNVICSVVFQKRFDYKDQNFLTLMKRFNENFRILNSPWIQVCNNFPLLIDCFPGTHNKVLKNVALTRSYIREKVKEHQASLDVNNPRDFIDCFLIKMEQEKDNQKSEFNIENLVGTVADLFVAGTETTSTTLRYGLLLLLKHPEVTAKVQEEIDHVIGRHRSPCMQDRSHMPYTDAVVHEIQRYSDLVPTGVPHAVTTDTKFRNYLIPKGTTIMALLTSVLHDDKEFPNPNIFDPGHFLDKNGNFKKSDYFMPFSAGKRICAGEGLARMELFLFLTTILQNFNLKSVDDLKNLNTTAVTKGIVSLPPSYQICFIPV
The data set can be described thus: Reversible inhibition of CYP2C8 in human liver microsomes. The format is ADME, Microsome.

The target in data set [9] is T3, Cytochrome P450 2C8. Description: Inhibition of CYP2C8. The format is ADME.
The target in the next data set is Cytochrome P450 2C9 (Homo sapiens, UniProt P11712). Description: Reversible inhibition of CYP2C9 in human liver microsomes. The format is ADME, Microsome.
Cytochrome P450 2C9, sequence (P11712 whole entry): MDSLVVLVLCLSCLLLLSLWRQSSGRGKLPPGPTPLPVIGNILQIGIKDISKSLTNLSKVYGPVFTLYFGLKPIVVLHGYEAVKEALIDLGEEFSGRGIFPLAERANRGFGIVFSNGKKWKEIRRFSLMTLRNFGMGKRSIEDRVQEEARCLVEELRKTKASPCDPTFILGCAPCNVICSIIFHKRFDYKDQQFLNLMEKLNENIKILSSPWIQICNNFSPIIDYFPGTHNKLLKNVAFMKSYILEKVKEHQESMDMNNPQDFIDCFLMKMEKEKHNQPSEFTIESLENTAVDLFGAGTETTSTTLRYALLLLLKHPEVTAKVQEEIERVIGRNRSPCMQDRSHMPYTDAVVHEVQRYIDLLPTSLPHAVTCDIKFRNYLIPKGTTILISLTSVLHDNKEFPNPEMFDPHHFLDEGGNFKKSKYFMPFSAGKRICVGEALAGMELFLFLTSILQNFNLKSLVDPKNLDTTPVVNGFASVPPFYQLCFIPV
The species named for data set [10] is Homo sapiens. The data set can be described thus: Inhibition of CYP2B6 in human assessed as increase of bupropion systemic exposure. The format is ADME, organism-based. Further details: scale not given: the % may be the effect or the level left. The conditions noted are these: in vivo.
For data set [11], the species on record is Homo sapiens. The data set can be described thus: Inhibition of CYP2B6 in human assessed as decrease of hydroxybupropion metabolite systemic exposure. Further details: scale not given: the % may be the effect or the level left. The format is ADME, organism-based. The conditions noted are these: in vivo.
A further data set deals with CYP2C19 (Homo sapiens, UniProt P33261). The data set can be described thus: (§3) Time dependent inhibition of CYP2C19.
CYP2C19, sequence (P33261 whole entry): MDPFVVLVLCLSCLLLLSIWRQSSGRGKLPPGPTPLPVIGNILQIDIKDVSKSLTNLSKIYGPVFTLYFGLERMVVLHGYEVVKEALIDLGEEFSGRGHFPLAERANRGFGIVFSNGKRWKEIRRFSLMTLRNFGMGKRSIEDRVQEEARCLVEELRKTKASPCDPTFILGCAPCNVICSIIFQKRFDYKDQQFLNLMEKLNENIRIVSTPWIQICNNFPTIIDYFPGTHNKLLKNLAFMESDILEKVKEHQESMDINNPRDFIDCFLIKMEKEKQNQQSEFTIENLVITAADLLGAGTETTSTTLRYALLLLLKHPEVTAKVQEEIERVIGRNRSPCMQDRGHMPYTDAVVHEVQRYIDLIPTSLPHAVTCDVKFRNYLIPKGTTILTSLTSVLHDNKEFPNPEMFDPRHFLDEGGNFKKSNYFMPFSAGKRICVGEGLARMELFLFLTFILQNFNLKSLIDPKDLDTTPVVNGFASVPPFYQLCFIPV
Another data set concerns the target Cytochrome P450 2C19 (Homo sapiens, UniProt P33261). The description is as §3.
Data set [12] in a line: Half life in human. The format is ADME, organism-based. The conditions noted are these: in vivo.
In data set [13] the target is T1, CYP3A4. Description: Inhibition of CYP3A4-mediated testosterone 6 beta hydroxylation in human liver microsome by Dixon plot analysis. The format is ADME. The conditions noted are these: liver microsomes, probe testosterone (6 beta-hydroxylation).
For data set [14], the target named is T2, Cytochrome P450 3A4. The data set can be described thus: Time dependent inhibition of CYP3A4-mediated testosterone-6-beta hydroxylation in human liver microsome. The format is ADME.
Data set [15] has as its target T1, CYP3A4. The data set can be described thus: (§4) Inhibition of CYP3A4 in human liver microsomes in presence of NADPH. The format is ADME, Microsome. The conditions noted are these: human, liver microsomes.
Data set [16] addresses T2, Cytochrome P450 3A4. The data set is described as §4. The format is ADME, Microsome.
The target of data set [17] is T3, Cytochrome P450 2C8. Description: Inhibition of CYP2C8 in human liver microsomes in presence of NADPH. The format is ADME, Microsome.
The target in another data set is T4, CYP2C8 (Homo sapiens, UniProt P10632).
T4 sequence (P10632 whole entry): T3 sequence (P10632 whole entry)
Description: (§5) Time dependent inhibition of CYP2C8 in human liver microsomes. The format is ADME, Microsome. The conditions noted are these: human, liver microsomes.

Data set [18] concerns the target T3, Cytochrome P450 2C8. The data set is described as §5. The format is ADME, Microsome.

Each structure is given as a SMILES string.

T1 sequence (P08684 whole entry): as the sequence (P08684 whole entry) above
Cytochrome P450 2C19, sequence (P33261 whole entry): as the sequence (P33261 whole entry) above

On to `CC(C)(C)NC(=O)C1(C2CCCCC2)CCN(C(=O)[C@@H](Cc2ccc(Cl)cc2)NC(=O)[C@H]2CCc3ccccc3[C@H]2N)CC1`, for which, at CYP3A4 [1], the kinact was 0.00133 s⁻¹. This molecule also came in with a Ki at Cytochrome P450 3A4 [2] of 23 µM.
In data set [3], `O=C1CCc2ccc(OCCCCN3CCN(c4cccc(Cl)c4Cl)CC3)cc2N1` [ARIPIPRAZOLE] came in with a clearance of 0.8 mL/min/kg. The logD in [4] came out at 5.54. This molecule also gave a bioavailability in data set [5] of 87%.
Take `CN(c1ncccc1CNc1nc(Nc2ccc3c(c2)CC(=O)N3)ncc1C(F)(F)F)S(C)(=O)=O` [PF-00562271]: at CYP3A4 [6], the kinact is 0.00383 s⁻¹. In addition, at Cytochrome P450 3A4 [7], the Ki was found to be 12 µM.
Regarding `Cc1ccc(C)c(OCCCC(C)(C)C(=O)O)c1` [GEMFIBROZIL], the IC50 at Cytochrome P450 2C8 [8] was determined as 95 µM; against Cytochrome P450 2C8 [9] it was 28 µM; against Cytochrome P450 2C9, 9.6 µM.
With `CC(=O)Oc1cc2c(s1)CCN(C(C(=O)C1CC1)c1ccccc1F)C2` (stereo not given), the values for the Activity in the data set filed under Homo sapiens [10] and in the data set listed under Homo sapiens [11] were 18% and 23%, respectively.
On to `COC(=O)[C@H](c1ccccc1Cl)N1CCc2sccc2C1` [CLOPIDOGREL], for which the results for the Activity in the data set listed under Homo sapiens [10] and in the data set listed under Homo sapiens [11] were 60% and 52%, respectively. Also, the kinact on CYP2C19 was 0.000917 s⁻¹. On Cytochrome P450 2C19, the Ki came to 14.3 µM.
As for `CCc1nn(CCCN2CCN(c3cccc(Cl)c3)CC2)c(=O)n1CCOc1ccccc1` [NEFAZODONE], in data set [12], the half-life is 60 min. This molecule also yielded a logD in data set [4] of 3.43. In data set [5], this molecule returned a bioavailability of 20%.
Regarding `O=c1n(CCCN2CCN(c3cccc(Cl)c3)CC2)nc2ccccn12` [TRAZODONE], the logD in data set [4] is 1.58.
With `CC(C)CN(C[C@@H](O)[C@H](Cc1ccccc1)NC(=O)O[C@H]1CCOC1)S(=O)(=O)c1ccc(N)cc1`, the kinact at CYP3A4 [13] was 0.00983 s⁻¹. Moreover, at Cytochrome P450 3A4 [14], the Ki turned out to be 370 nM.
In the case of `COc1cc(CC(=O)O)ccc1Oc1ccc2[nH]c(C)cc2c1NS(=O)(=O)c1ccc(Cl)cc1Cl`, the kinact at CYP3A4 [15] was 0.00267 s⁻¹. Moreover, the Ki on Cytochrome P450 3A4 [16] amounted to 18 µM.
For `Cc1ccc(C)c(OCCCC(C)(C)C(=O)O[C@@H]2O[C@H](C(=O)O)[C@@H](O)[C@H](O)[C@H]2O)c1`, the results for the IC50 at Cytochrome P450 2C8 [17] and at Cytochrome P450 2C8 [9] were 1800 nM and 4.1 µM, respectively. Moreover, the kinact on CYP2C8 is 0.0035 s⁻¹. This molecule also gave a Ki at Cytochrome P450 2C8 [18] of 20 µM.
Consider `Clc1ccccc1CN1CCc2sccc2C1` [TICLOPIDINE], for which the Activity in the data set filed under Homo sapiens [10] is reported as 85%; in the data set filed under Homo sapiens [11] it was 84%.
